Laboratory results: patent US20150231199A1, “PEPTIDES AND THEIR USES” (priority 2012, published 2015)
In brackets after ≈: the same amount, converted by molar mass. Positions of bridges follow the written chain, without caps; N, C: chain ends. Residues, ends and D or L forms follow the SMILES beside them. Chains are numbered I, II in the order given. *: point of attachment. Lauroyl = CCCCCCCCCCCC(=O)*; Decanoyl = CCCCCCCCCC(=O)*; Octanoyl = CCCCCCCC(=O)*; Hexanoyl = CCCCCC(=O)*; Butyryl = CCCC(=O)*

Assays:
[1] = test system: Klebsiella pneumoniae DM4299; assay type: cell-based
Procedure: (§1) V2-dimer and all lipopeptides (FIG. 1A) used in this study were purchased from Mimotopes. All peptides were prepared by dissolving in sterile water to make 1000 μg/mL stock solutions. Minimum Inhibitory Concentration (MIC) determination was carried out in Mueller Hinton Broth (MHB) using the broth macro-dilution method as described by the Clinical and Laboratory Standards Institute (CLSI). Then, cation-adjusted MHB (CA-MHB) was used to prepare serial two fold dilutions of the compounds in test tubes. The concentration of the inoculums suspension was also adjusted to approximately 5×10^5 Colony Forming Units (CFU)/mL using MHB. Bacteria were incubated with the compounds for 24 hours at 35° C. prior to reading. In this study, Gram-positive strains used were Staphylococcus aureus DM4001 and Methicillin-resistant Staphylococcus aureus (MRSA) DM9808. Gram-negative strains used were Klebsiella pneumoniae DM4299, Pseudomonas aeruginosa ATCC23155 and Escherichia coli ATCC27922.

Pseudomonas aeruginosa = assay type: cell-based
Procedure: as §1
(§2) Methods used are as described in Example 1 above.

[2] = test system: Methicillin-resistant Staphylococcus aureus (MRSA); assay type: cell-based
Procedure: as §1, §2

Staphylococcus aureus = assay type: cell-based
Procedure: as §1, §2

[3] = test system: red blood cells (RBCs) of New Zealand white rabbits; assay: in vitro; assay type: cell-based, rabbit; details: red cells of rabbit, 1 h
Procedure: Fresh red blood cells (RBCs) of New Zealand white rabbits were used for this experiment. The RBCs obtained were centrifuged at 3000 rpm for 10 min. Supernatant was removed and washed twice with sterile PBS Buffer (20 mM, 100 mM NaCl, pH 7). The RBCs were further diluted to 8% stock solution in PBS. Peptides were dissolved in PBS with desired stock concentrations. When compounds were mixed with RBCs, desired concentration of 4% RBCs was obtained. For C14V2D and C16V2D, they were dissolved in Dimethylformamide ([…]; DMF) with desired stock concentrations. When compounds were mixed with RBCs, desired concentration of 4% RBCs and 0.5% DMF was obtained. DMF concentration of <1% was used as it had negligible hemolytic activity on RBCs. The mixtures were added to 1.5 mL centrifuge tubes and incubated at 37° C. for 1 h. After incubation, the blood was centrifuged at 3000 rpm for 3 min at 4° C. 100 μL of the supernatant was transferred into transparent 96-well plate. The absorbance was measured at 576 nm using a microplate reader (TECAN Infinite 200M Pro). 2% Triton X-100 was used as positive control. PBS was used as negative controls. The amount of hemoglobin released was calculated using the following equation: […]

[4] = test system: Escherichia coli ATCC27922; assay type: cell-based
Procedure: as §1

MIC [1] [µM] | MIC (Pseudomonas aeruginosa) [µM] | MIC [2] [µM] | MIC (Staphylococcus aureus) [µM] | HC10 [3] [µg/mL] | MIC [4] [µM] | Structure (SMILES)
2.63 (≈ 6.25 µg/mL) | 2.63 (≈ 6.25 µg/mL) | 2.63 (≈ 6.25 µg/mL) | 2.57 (≈ 6.1 µg/mL) |  |  | CCCCCCCC(=O)N[C@@H](CCCNC(=N)N)C(=O)NCC(=O)N[C@@H](CCCNC(=N)N)C(=O)N[C@@H](CCCCN)C(=O)NCC(=O)NCC(=O)N[C@@H](CCCNC(=N)N)C(=O)N[C@@H](CCCNC(=N)N)C(=O)NCCCC[C@H](NC(=O)[C@H](CCCNC(=N)N)NC(=O)[C@H](CCCNC(=N)N)NC(=O)CNC(=O)CNC(=O)[C@H](CCCCN)NC(=O)[C@H](CCCNC(=N)N)NC(=O)CNC(=O)[C@H](CCCNC(=N)N)NC(=O)CCCCCCC)C(=O)N[C@@H](CCCCN)C(=O)O [Peptide C8-G2D, (C7H15—CO—NH—RGRKGGRR)2KK] (I: Octanoyl-RGRKGGRRKK-OH / II: Octanoyl-RGRKGGRR; amide I:9-II:C; N-terminus and C-terminus assumed)
2.57 (≈ 6.25 µg/mL) | 2.57 (≈ 6.25 µg/mL) | 2.57 (≈ 6.25 µg/mL) | 2.51 (≈ 6.1 µg/mL) |  |  | CCCCCCCCCC(=O)N[C@@H](CCCNC(=N)N)C(=O)NCC(=O)N[C@@H](CCCNC(=N)N)C(=O)N[C@@H](CCCCN)C(=O)NCC(=O)NCC(=O)N[C@@H](CCCNC(=N)N)C(=O)N[C@@H](CCCNC(=N)N)C(=O)NCCCC[C@H](NC(=O)[C@H](CCCNC(=N)N)NC(=O)[C@H](CCCNC(=N)N)NC(=O)CNC(=O)CNC(=O)[C@H](CCCCN)NC(=O)[C@H](CCCNC(=N)N)NC(=O)CNC(=O)[C@H](CCCNC(=N)N)NC(=O)CCCCCCCCC)C(=O)N[C@@H](CCCCN)C(=O)O [Peptide C10-G2D, (C9H19—CO—NH—RGRKGGRR)2KK] (I: Decanoyl-RGRKGGRRKK-OH / II: Decanoyl-RGRKGGRR; amide I:9-II:C; N-terminus and C-terminus assumed)
40.21 (≈ 100 µg/mL) | >40.21 | 40.21 (≈ 100 µg/mL) | >40.21 |  |  | CCCCCCCCCCCC(=O)N[C@@H](CCCNC(=N)N)C(=O)NCC(=O)N[C@@H](CCCNC(=N)N)C(=O)N[C@@H](CCCCN)C(=O)NCC(=O)NCC(=O)N[C@@H](CCCNC(=N)N)C(=O)N[C@@H](CCCNC(=N)N)C(=O)NCCCC[C@H](NC(=O)[C@H](CCCNC(=N)N)NC(=O)[C@H](CCCNC(=N)N)NC(=O)CNC(=O)CNC(=O)[C@H](CCCCN)NC(=O)[C@H](CCCNC(=N)N)NC(=O)CNC(=O)[C@H](CCCNC(=N)N)NC(=O)CCCCCCCCCCC)C(=O)N[C@@H](CCCCN)C(=O)O [Peptide C12-G2D, (C11H23—CO—NH—RGRKGGRR)2KK] (I: Lauroyl-RGRKGGRRKK-OH / II: Lauroyl-RGRKGGRR; amide I:9-II:C; N-terminus and C-terminus assumed)

Second part, the molecule before the results:

Structure (SMILES) | MIC [1] [µM] | MIC (Pseudomonas aeruginosa) [µM] | MIC [2] [µM] | MIC (Staphylococcus aureus) [µM] | HC10 [3] [µg/mL] | MIC [4] [µM]
CC(=O)N[C@@H](CCCNC(=N)N)C(=O)NCC(=O)N[C@@H](CCCNC(=N)N)C(=O)N[C@@H](CCCCN)C(=O)NCC(=O)NCC(=O)N[C@@H](CCCNC(=N)N)C(=O)N[C@@H](CCCNC(=N)N)C(=O)NCCCC[C@H](NC(=O)[C@H](CCCNC(=N)N)NC(=O)[C@H](CCCNC(=N)N)NC(=O)CNC(=O)CNC(=O)[C@H](CCCCN)NC(=O)[C@H](CCCNC(=N)N)NC(=O)CNC(=O)[C@H](CCCNC(=N)N)NC(C)=O)C(=O)N[C@@H](CCCCN)C(=O)O [Peptide C2-G2D, (CH3—CO—NH—RGRKGGRR)2KK] (I: Ac-RGRKGGRRKK-OH / II: Ac-RGRKGGRR; amide I:9-II:C; N-terminus and C-terminus assumed) | 5.66 (≈ 12.5 µg/mL) | 2.83 (≈ 6.24 µg/mL) | 5.66 (≈ 12.5 µg/mL) | 5.52 (≈ 12.2 µg/mL) |  | 
CC(=O)N[C@@H](CCCNC(=N)N)C(=O)NCC(=O)N[C@@H](CCCNC(=N)N)C(=O)N[C@@H](CCCCN)C(=O)N[C@H](C(=O)N[C@H](C(=O)N[C@@H](CCCNC(=N)N)C(=O)N[C@@H](CCCNC(=N)N)C(=O)NCCCC[C@H](NC(=O)[C@H](CCCNC(=N)N)NC(=O)[C@H](CCCNC(=N)N)NC(=O)[C@@H](NC(=O)[C@@H](NC(=O)[C@H](CCCCN)NC(=O)[C@H](CCCNC(=N)N)NC(=O)CNC(=O)[C@H](CCCNC(=N)N)NC(C)=O)C(C)C)C(C)C)C(=O)N[C@@H](CCCCN)C(=O)O)C(C)C)C(C)C [Peptide C2-V2D, (CH3—CO—NH—RGRKVVRR)2KK] (I: Ac-RGRKVVRRKK-OH / II: Ac-RGRKVVRR; amide I:9-II:C) | 5.26 (≈ 12.5 µg/mL) | 5.26 (≈ 12.5 µg/mL) | 2.63 (≈ 6.25 µg/mL) | 5.26 (≈ 12.5 µg/mL) | >2000 | 2.63 (≈ 6.25 µg/mL)
CCCC(=O)N[C@@H](CCCNC(=N)N)C(=O)NCC(=O)N[C@@H](CCCNC(=N)N)C(=O)N[C@@H](CCCCN)C(=O)NCC(=O)NCC(=O)N[C@@H](CCCNC(=N)N)C(=O)N[C@@H](CCCNC(=N)N)C(=O)NCCCC[C@H](NC(=O)[C@H](CCCNC(=N)N)NC(=O)[C@H](CCCNC(=N)N)NC(=O)CNC(=O)CNC(=O)[C@H](CCCCN)NC(=O)[C@H](CCCNC(=N)N)NC(=O)CNC(=O)[C@H](CCCNC(=N)N)NC(=O)CCC)C(=O)N[C@@H](CCCCN)C(=O)O [Peptide C4-G2D, (C3H7—CO—NH—RGRKGGRR)2KK] (I: Butyryl-RGRKGGRRKK-OH / II: Butyryl-RGRKGGRR; amide I:9-II:C; N-terminus and C-terminus assumed) | 5.52 (≈ 12.5 µg/mL) | 2.76 (≈ 6.25 µg/mL) | 5.52 (≈ 12.5 µg/mL) | 5.39 (≈ 12.2 µg/mL) |  | 
CCCC(=O)N[C@@H](CCCNC(=N)N)C(=O)NCC(=O)N[C@@H](CCCNC(=N)N)C(=O)N[C@@H](CCCCN)C(=O)N[C@H](C(=O)N[C@H](C(=O)N[C@@H](CCCNC(=N)N)C(=O)N[C@@H](CCCNC(=N)N)C(=O)NCCCC[C@H](NC(=O)[C@H](CCCNC(=N)N)NC(=O)[C@H](CCCNC(=N)N)NC(=O)[C@@H](NC(=O)[C@@H](NC(=O)[C@H](CCCCN)NC(=O)[C@H](CCCNC(=N)N)NC(=O)CNC(=O)[C@H](CCCNC(=N)N)NC(=O)CCC)C(C)C)C(C)C)C(=O)N[C@@H](CCCCN)C(=O)O)C(C)C)C(C)C [Peptide C4-V2D, (C3H7—CO—NH—RGRKVVRR)2KK] (I: Butyryl-RGRKVVRRKK-OH / II: Butyryl-RGRKVVRR; amide I:9-II:C) | 5.14 (≈ 12.5 µg/mL) | 10.28 (≈ 25 µg/mL) | 2.57 (≈ 6.25 µg/mL) | 2.57 (≈ 6.25 µg/mL) | >2000 | 2.57 (≈ 6.25 µg/mL)
CCCCCC(=O)N[C@@H](CCCNC(=N)N)C(=O)NCC(=O)N[C@@H](CCCNC(=N)N)C(=O)N[C@@H](CCCCN)C(=O)NCC(=O)NCC(=O)N[C@@H](CCCNC(=N)N)C(=O)N[C@@H](CCCNC(=N)N)C(=O)NCCCC[C@H](NC(=O)[C@H](CCCNC(=N)N)NC(=O)[C@H](CCCNC(=N)N)NC(=O)CNC(=O)CNC(=O)[C@H](CCCCN)NC(=O)[C@H](CCCNC(=N)N)NC(=O)CNC(=O)[C@H](CCCNC(=N)N)NC(=O)CCCCC)C(=O)N[C@@H](CCCCN)C(=O)O [Peptide C6-G2D, (C5H11—CO—NH—RGRKGGRR)2KK] (I: Hexanoyl-RGRKGGRRKK-OH / II: Hexanoyl-RGRKGGRR; amide I:9-II:C; N-terminus and C-terminus assumed) | 2.70 (≈ 6.26 µg/mL) | 5.39 (≈ 12.5 µg/mL) | 2.70 (≈ 6.26 µg/mL) | 5.26 (≈ 12.2 µg/mL) |  | 
CCCCCC(=O)N[C@@H](CCCNC(=N)N)C(=O)NCC(=O)N[C@@H](CCCNC(=N)N)C(=O)N[C@@H](CCCCN)C(=O)N[C@H](C(=O)N[C@H](C(=O)N[C@@H](CCCNC(=N)N)C(=O)N[C@@H](CCCNC(=N)N)C(=O)NCCCC[C@H](NC(=O)[C@H](CCCNC(=N)N)NC(=O)[C@H](CCCNC(=N)N)NC(=O)[C@@H](NC(=O)[C@@H](NC(=O)[C@H](CCCCN)NC(=O)[C@H](CCCNC(=N)N)NC(=O)CNC(=O)[C@H](CCCNC(=N)N)NC(=O)CCCCC)C(C)C)C(C)C)C(=O)N[C@@H](CCCCN)C(=O)O)C(C)C)C(C)C [Peptide C6-V2D, (C5H11—CO—NH—RGRKVVRR)2KK] (I: Hexanoyl-RGRKVVRRKK-OH / II: Hexanoyl-RGRKVVRR; amide I:9-II:C) | 5.03 (≈ 12.5 µg/mL) | 5.03 (≈ 12.5 µg/mL) | 1.26 (≈ 3.13 µg/mL) | 2.51 (≈ 6.24 µg/mL) | >2000 | 2.51 (≈ 6.24 µg/mL)
